Measured values taken from ChEMBL document CHEMBL4354832, “Discovery of a Covalent Inhibitor of KRASG12C (AMG 510) for the Treatment of Solid Tumors” (J Med Chem, 2020).
≈ marks a conversion by molar mass, not a printed value. Calls of active or inactive are those of the source. No cut-off for these calls is given here.

Columns and labels:
[1] = Clearance in Sprague-Dawley rat at 1 mg/kg, iv or 10 mg/kg, po; type: ADME, organism-based; conditions: in vivo
[2] = Volume of distribution at steady state in Sprague-Dawley rat at 1 mg/kg, iv or 10 mg/kg, po; type: ADME, organism-based; conditions: in vivo, read-out: Vdss
[3] = Solubility of compound in PBS buffer at pH 7.4 incubated for 48 to 72 hrs under shaking conditions by LCMS analysis; type: physicochemical
[4] = system: Mus musculus; test: Decrease in ERK1/ERK2 phosphorylation in human MIAPaCa2 cells xenografted in athymic nude mouse at > 10 mg/kg, po administered as single dose measured after 60 to 120 mins post-treatment; type: functional, organism-based
[5] = Oral bioavailability in BALB/c mouse at 10 mg/kg; type: ADME, organism-based; conditions: in vivo
[6] = Protein binding in plasma of Beagle dog assessed as unbound fraction at […] by ultracentrifugation; type: ADME, cell-free, Canis lupus familiaris
[7] = Permeability of compound across apical to basolateral membrane in MDCK2 cells at 10 to 50 uM incubated for 2 hrs under shaking condition by LC-MS/MS analysis; type: ADME, cell-based, Canis lupus familiaris, MDCK-II; conditions: dog, MDCK; read-out: permeability
[8] = Oral bioavailability in Sprague-Dawley rat at 10 mg/kg; type: ADME, organism-based; conditions: in vivo
[9] = Intrinsic clearance in human cryopreserved hepatocytes assessed per 10^6 cells at 0.5 uM measured upto 60 mins by LCMS analysis; type: ADME, cell-based, Hepatocyte; conditions: read-out: CLH
[10] = Volume of distribution at steady state in Beagle dog at 1 mg/kg, iv or 10 mg/kg, po; type: ADME, organism-based, Canis lupus familiaris; conditions: in vivo, read-out: Vdss
[11] = Clearance in BALB/c mouse at 1 mg/kg, iv or 10 mg/kg, po; type: ADME, organism-based; conditions: in vivo
[12] = Time taken to achieve Cmax in plasma of athymic nude mouse xenografted with human MIAPaCa2 cells at > 10 mg/kg, po administered as single dose; type: ADME, organism-based; conditions: read-out: tCmax (converted)
[13] = system: MIA PaCa-2; test: Antitumor activity against human MIAPaCa2 cells harboring KRAS G12C point mutant xenografted in athymic nude mouse assessed as tumor growth inhibition at 10 mg/kg, po qd measured after 26 days relative to control; type: functional
[14] = Oral bioavailability in Beagle dog at 10 mg/kg; type: ADME, organism-based, Canis lupus familiaris; conditions: in vivo
[15] = Half life of compound in aqueous phosphate buffer at pH 7.4 and at 37 degree C in presence of 5 mM GSH; type: physicochemical; conditions: aqueous phosphate buffer with 5 mM GSH
[16] = Solubility of compound in FaSSIF incubated for 48 to 72 hrs under shaking conditions by LCMS analysis; type: physicochemical
[17] = Protein binding in plasma of human assessed as unbound fraction at […] by ultracentrifugation; type: ADME, cell-free
[18] = Unbound plasma concentration in athymic nude mouse xenografted with human MIAPaCa2 cells at 10 mg/kg, po qd after 8 hrs post-last dose; type: ADME, organism-based; conditions: in vivo
[19] = Solubility of compound in 0.01N HCl at pH 2 incubated for 48 to 72 hrs under shaking conditions by LCMS analysis; type: physicochemical
[20] = system: MIA PaCa-2; test: Antiproliferative activity against human MIAPaCa2 cells harboring KRAS G12C point mutant assessed as cell growth inhibition after 72 hrs by Celltiter-Glo luminescent cell viability assay; type: functional, cell-based; conditions: MIA PaCa-2, 72 h
[21] = system: MIA PaCa-2; test: Antitumor activity against human MIAPaCa2 cells harboring KRAS G12C point mutant xenografted in athymic nude mouse assessed as tumor regression at >= 30 mg/kg, po qd measured after 26 days; type: functional, organism-based
[22] = Half life in BALB/c mouse at 1 mg/kg, iv or 10 mg/kg, po; type: ADME, organism-based; conditions: in vivo
[23] = Time taken to achieve Cmax in tumor of athymic nude mouse xenografted with human MIAPaCa2 cells at > 10 mg/kg, po administered as single dose; type: ADME, organism-based, Neoplasm; conditions: read-out: tCmax (converted)
[24] = system: MIA PaCa-2; test: Antitumor activity against human MIAPaCa2 cells harboring KRAS G12C point mutant xenografted in athymic nude mouse assessed as tumor regression at 100 mg/kg, po qd measured after 26 days relative to control; type: functional
[25] = Tmin in plasma of athymic nude mouse xenografted with human MIAPaCa2 cells at > 10 mg/kg, po administered as single dose; type: ADME, organism-based; conditions: in vivo
[26] = system: A549; test: Antiproliferative activity against human A549 cells harboring KRAS G12S point mutant assessed as cell growth inhibition after 72 hrs by Celltiter-Glo luminescent cell viability assay; type: functional, cell-based; conditions: A549, 72 h
[27] = Protein binding in plasma of BALB/c mouse assessed as unbound fraction at […] by ultracentrifugation; type: ADME
[28] = Half life in Sprague-Dawley rat at 1 mg/kg, iv or 10 mg/kg, po; type: ADME, organism-based; conditions: in vivo
[29] = Half life in Beagle dog at 1 mg/kg, iv or 10 mg/kg, po; type: ADME, organism-based, Canis lupus familiaris; conditions: in vivo
[30] = Clearance in Beagle dog at 1 mg/kg, iv or 10 mg/kg, po; type: ADME, organism-based, Canis lupus familiaris; conditions: in vivo
[31] = system: MIA PaCa-2; test: Antitumor activity against human MIAPaCa2 cells harboring KRAS G12C point mutant xenografted in athymic nude mouse assessed as tumor regression at 30 mg/kg, po qd measured after 26 days relative to control; type: functional
[32] = Intrinsic clearance in mouse cryopreserved hepatocytes assessed per 10^6 cells at 0.5 uM measured upto 60 mins by LCMS analysis; type: ADME, cell-based, Hepatocyte; conditions: read-out: CLH
[33] = Protein binding in plasma of Sprague-Dawley rat assessed as unbound fraction at […] by ultracentrifugation; type: ADME, cell-free
[34] = Volume of distribution at steady state in BALB/c mouse at 1 mg/kg, iv or 10 mg/kg, po; type: ADME, organism-based; conditions: in vivo, read-out: Vdss

## C=CC(=O)N1CCN(c2nc(=O)n(-c3c(C)ccnc3C(C)C)c3nc(-c4c(O)cccc4F)c(F)cc23)[C@@H](C)C1 [SOTORASIB]
[1]
  clearance: 56.7 mL/min/kg
[2]
  Vd: 2 L/kg
[3]
  solubility thermodynamic: 423 µM (≈ 237 µg/mL)
[4]
  inhibition: Active
[5]
  bioavailability: 22 to 40%
[6]
  fraction unbound at […]: 0.17
[7]
  Papp A→B at 2 h, up to 50 µM: 6 ×10⁻⁶ cm/s
[8]
  bioavailability: 2.8%
[9]
  hepatocyte CLint at 0.5 µM: 9 µL/min/1e6 cells
[10]
  Vd: 0.73 L/kg
[11]
  clearance: 26.7 mL/min/kg
[12]
  Tmax: 30 min
[13]
  TGI: 86%
[14]
  bioavailability: 0.34%
[15]
  half-life: 200 min
[16]
  solubility thermodynamic: 492 µM (≈ 276 µg/mL)
[17]
  fraction unbound at […]: 0.09
[18]
  Cp(f): < 1 nM
[19]
  solubility thermodynamic: 499 µM (≈ 280 µg/mL)
[20]
  IC50: 0.005 µM
[21]
  inhibition: Active
[22]
  half-life: 30 min
[23]
  Tmax: 30 min
[24]
  inhibition (INH): 62%
[25]
  Tmin: 120 min
[26]
  IC50: 36.5 µM
[27]
  fraction unbound at […]: 0.06
[28]
  half-life: 30 min
[29]
  half-life: 24 min
[30]
  clearance: 36.7 mL/min/kg
[31]
  inhibition (INH): 34%
[32]
  hepatocyte CLint at 0.5 µM: 36 µL/min/1e6 cells
[33]
  fraction unbound at […]: 0.05
[34]
  Vd: 0.7 L/kg
